Patent EP4467137A1, “TREATMENT OF FRONTOTEMPORAL DEMENTIA OR FRONTOTEMPORAL LOBAR DEMENTIA” (Universidad Autónoma de Madrid, priority 2023, dated 2024)

Columns and labels:
[1] = Cell viability/toxicity by the MTT method; format: cell-based; details: human, effect of the compound per se on AREc332 cells
Text: (§1) Based on the results obtained (Table 2), Compound 1 was selected for further in vitro and in vivo studies as it was endowed with the best anti-neuroinflammatory activity. Table 2: Comparative in vitro results. Cell viability/toxicity: effect of the compound per se on cell viability of […] cells measured with the MTT method. Anti-neuroinflammatory effect: % Reduction of nitrites in primary rat glial cultures. PAMPA-BBB: In vitro blood-brain barrier permeation assay, permeation rate Pe (10-6 cm.s-1). NRF2, CD (µM): Concentration of compound that doubles de activation of NRF2. ORAC: Oxygen radical absorbance capacity. LOX-5: lipoxygenase-5.

[2] = In vitro blood-brain barrier permeation assay (PAMPA-BBB); format: in vitro ADME
Text: The in vitro blood-brain barrier permeation assay (PAMPA-BBB) was used for predicting the brain penetration of compounds, following a described method [Herrera-Arozamena, Clara et al. "Resveratrol-Based MTDLs to Stimulate Defensive and Regenerative Pathways and Block Early Events in Neurodegenerative Cascades." Journal of medicinal chemistry vol. 65,6 (2022): 4727-4751. doi:10.1021/acs.jmedchem.1c01883]. The results are given as the mean ± SD. In each experiment, 11 quality control standards of known BBB permeability were included to validate the analysis set.

[3] = system: NRF2; assay: NRF2 induction, luciferase activity in AREc32 cells; format: cell-based; details: concentration that doubles the activation of NRF2, read-out: NRF2 CD
Text: Screening of NRF2 induction was quantified by luciferase activity in AREc32 cells as described in [Herrera-Arozamena, Clara et al. "Tuning melatonin receptor subtype selectivity in oxadiazolone-based analogues: Discovery of QR2 ligands and NRF2 activators with neurogenic properties." European journal of medicinal chemistry vol. 190 (2020): 112090. doi:10.1016/j.ejmech.2020.112090].
as §1

[4] = In vivo hTauP301L model: spatial memory tests (T-maze, Object Location test); parameters: species or system mouse; details: 35 days; for OLT discrimination index / T-maze percentage of success: adult mice
Experimental: In vivo hTau301L model was induced by stereotaxic injection of AAV-hTauP301L (AAV-hTau) particles as described in [Luengo, Enrique et al. "Implication of type 4 NADPH oxidase (NOX4) in tauopathy." Redox biology vol. 49 (2022): 102210. doi:10.1016/j.redox.2021.102210 ]. Control animals were injected with AAV-GFP. Evaluation of hyperphosphorylated tau in sarkosyl soluble and insoluble fractions; microgliosis; AT8 and AT180 by immunofluorescence; and cognitive test were performed as described previously [Luengo, Enrique et al. "Implication of type 4 NADPH oxidase (NOX4) in tauopathy." Redox biology vol. 49 (2022): 102210. doi:10.1016/j.redox.2021.102210 ].
Oral administration of Compound 1 at different dosages (20 mg·kg^-1 and 50 mg·kg^-1) was administered embedded in gelatine. The compound was given in a mixture of 10 % gelatine from porcine skin and 10 % sucralose in water, heated in a microwave oven. Before Compound 1 addition, gelatine mixture was left at RT. Afterwards, the compound was added, evenly mixed and plated 1 mL·well^-1 in a P24 plate. Before AAV injection, mice were trained to eat the gelatines by giving them one gelatine (without compound) per day for 4 consecutive days. After AAV injection, mice were treated once a day with control or Compound 1 gelatines for 35 consecutive days. This approach was followed in adult (3-4 months old) and aged (16-18 months old) mice injected with AAV-GFP or AAV-hTauP301L.
Example 2.5. Compound 1 ameliorates hTauP301L induced FTD and cognitive decline in adult (3-4 months old) mice. FTD was generated in adult male and female C57BL/6J mice (3-4 months old) by bihippocampal injection of AAV-hTau particles containing the P301L mutation. Mice were treated orally once a day with a single dose of 20 or 50 mg/kg of Compound 1 formulated in gelatines the day after stereotaxic delivery of AAVs (GFP or TauP301L, to controls and FTD, respectively). After 35 days treatment, hyperphosphorylated tau levels were evaluated by immunofluorescence and by WB in soluble and insoluble in sarkosyl fractions. Also, behavioural tests were conducted to study the cognition status of the mice.
Spatial memory was measured using the T-maze (Figure 9A) and the Object localization tests (OLT; Figure 9B).
Example 2.6. Compound 1 ameliorates hTauP301L induced FTD and cognitive decline in aged (16-18 months old) mouse. To include the aging effect in the FTD model, the previous experiments were replicated in male and female 16-18 months old C57/BL6J mice.

[5] = aged (16-18 months old) mice, 50 mg/kg oral

In the case of `COc1ccc2c(c1)CC(c1c[nH]c3ccc(OC)cc13)N2` (stereo not shown) [Compound 1, 5-Methoxy-3-(5-methoxyindolin-2-yl)-1H-indole], the CC50 [1] is reported as > 30 µM, the “PAMPA-BBB predicted brain penetration” value [2] is reported as “cns+” and the Papp ([2]; PAMPA, permeation rate, mean ± SD, read-out: PAMPA-BBB Pe) is reported as 12.9 ± 0.9 ×10⁻⁶ cm/s. The EC (2-fold activation) [3] was 0.56 ± 0.05 µM, the OLT discrimination index ([4]; 20 mg/kg or 50 mg/kg oral) was “dose-dependent improvement” and the “T-maze percentage of success” value ([4]; 20 mg/kg or 50 mg/kg oral) was “dose-dependent improvement”. The OLT discrimination index ([4]; 50 mg/kg oral) was “total recovery”, the “T-maze percentage of success” value ([4]; 50 mg/kg oral) was “total recovery” and the “spatial memory loss, OLT” value [4, 5] was “prevented”. The “spatial memory loss, T-maze” value [4, 5] was “prevented”.
